The target in series [1] is Histone-lysine N-methyltransferase EZH2 (Homo sapiens, UniProt Q15910). The experiment in a line: Binding affinity to EZH2 in human RD cells assessed as decrease in pronase E mediated EZH2 hydrolyzation incubated for 1 hr by DARTS analysis. In kind it is cell-based. The settings on record: dose 5-20 µM.
The subject of series [2] is RD. The experiment in a line: Antitumor activity against human RD-EV cells xenografted in BALB/c nude mouse assessed as tumor growth inhibition at 20 mg/kg, ip administered for 15 days. In kind it is functional. Particulars: 360 h, time 15 day, read-out: TGI.
For series [3], the system named is RD. The experiment in a line: Downregulation of H3K79me2 expression in human RD cells at 5 uM incubated for 6 days by immunoblotting analysis. The series is classed as functional, cell-based. The settings on record: time 6.0 day. On the technique in general: Immunoblotting shows a protein as a band on a membrane.
Series [4] deals with RD. The experiment in a line: Antiproliferative activity against EZH2 and G9a knockdown human RD cells assessed as reduction in clone formation rate at 5 uM for 1 to 2 weeks with fresh medium replacement for every 2 to 3 days by crystal violet staining based microscopic analysis. The series is classed as functional, cell-based. Particulars: time 1-2 weeks.
In series [5] the target is T1, Histone-lysine N-methyltransferase EHMT2 (Homo sapiens) (UniProt Q96KQ7).
T1 sequence (whole entry): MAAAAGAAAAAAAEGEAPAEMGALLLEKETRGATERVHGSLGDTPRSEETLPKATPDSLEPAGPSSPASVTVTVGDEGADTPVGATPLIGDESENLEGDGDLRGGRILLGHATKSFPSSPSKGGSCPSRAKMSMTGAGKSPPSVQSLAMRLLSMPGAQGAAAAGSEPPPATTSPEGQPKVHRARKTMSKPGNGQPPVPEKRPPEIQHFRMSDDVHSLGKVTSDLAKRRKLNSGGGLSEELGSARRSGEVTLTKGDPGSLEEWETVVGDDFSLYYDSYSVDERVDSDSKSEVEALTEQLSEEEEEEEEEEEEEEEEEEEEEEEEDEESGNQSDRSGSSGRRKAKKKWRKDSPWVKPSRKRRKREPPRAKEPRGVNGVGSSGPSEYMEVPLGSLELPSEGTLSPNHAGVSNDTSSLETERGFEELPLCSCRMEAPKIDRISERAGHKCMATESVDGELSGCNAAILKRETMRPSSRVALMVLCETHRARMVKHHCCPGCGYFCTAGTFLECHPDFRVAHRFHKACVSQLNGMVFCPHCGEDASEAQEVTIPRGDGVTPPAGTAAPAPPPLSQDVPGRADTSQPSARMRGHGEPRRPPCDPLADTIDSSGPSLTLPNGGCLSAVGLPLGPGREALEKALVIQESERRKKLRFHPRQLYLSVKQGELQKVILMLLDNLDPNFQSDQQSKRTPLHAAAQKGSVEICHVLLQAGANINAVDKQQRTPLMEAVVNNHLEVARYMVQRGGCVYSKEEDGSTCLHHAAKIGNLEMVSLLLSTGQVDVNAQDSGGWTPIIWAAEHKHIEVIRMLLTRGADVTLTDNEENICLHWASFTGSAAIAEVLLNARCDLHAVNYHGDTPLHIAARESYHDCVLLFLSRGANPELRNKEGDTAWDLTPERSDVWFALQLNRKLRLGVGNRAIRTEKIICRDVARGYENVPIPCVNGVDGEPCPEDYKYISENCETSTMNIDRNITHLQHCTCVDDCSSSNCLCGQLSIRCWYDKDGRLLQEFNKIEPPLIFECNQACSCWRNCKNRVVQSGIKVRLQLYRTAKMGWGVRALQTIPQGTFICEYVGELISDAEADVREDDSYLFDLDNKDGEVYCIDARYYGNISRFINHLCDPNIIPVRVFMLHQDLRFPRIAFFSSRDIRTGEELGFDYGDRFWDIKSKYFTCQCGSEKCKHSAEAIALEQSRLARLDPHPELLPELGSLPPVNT
The series can be described thus: Inhibition of human recombinant EHMT2 G9a using SAM as substrate at 10 uM by time-resolved fluorescence assay relative to control.

The nature of series [6]: Plasma protein binding in Kunming mouse by equilibrium dialysis method. In kind it is ADME, cell-free. The settings on record: read-out: PPB (converted).
Series [7] addresses T1, Histone-lysine N-methyltransferase EHMT2 (Homo sapiens). The experiment in a line: Binding affinity to recombinant EHMT2 G9a in human RD cells assessed as increase in protein thermal stability at 5 uM incubated for 4 hrs by CETSA based Western blot analysis. In kind it is cell-based.
Series [8] in a line: Half life in Sprague-Dawley rat at 30 mg/kg, po administered for 24 hrs by HPLC analysis. Particulars: in vivo. In kind it is ADME, organism-based.
A short description of series [9]: Cytotoxicity against human MCF-10A cells assessed as reduction in cell viability incubated for 72 hrs by MTT assay. The series is classed as toxicity, cell-based.
Series [10] addresses T2, Histone-lysine N-methyltransferase EHMT2 (Homo sapiens, UniProt Q96KQ7).
T2 sequence (Q96KQ7 whole entry): T1 sequence (whole entry)
The series can be described thus: Inhibition of human recombinant EHMT2 G9a using SAM as substrate incubated for 1 hr by microplate luminescence based HMT assay.

The nature of series [11]: AUC (0 to 24 hrs) in Sprague-Dawley rat at 30 mg/kg, po administered for 24 hrs by HPLC analysis. In kind it is ADME, organism-based. Details: time 24 hrs, dose 30 mg/kg, route po. Particulars: in vivo.
The nature of series [12]: Oral bioavailability in Sprague-Dawley rat at 30 mg/kg administered for 24 hrs by HPLC analysis. The series is classed as ADME, organism-based. Particulars: in vivo.
A short description of series [13]: Half life in Sprague-Dawley rat at 10 mg/kg, iv administered for 12 hrs by HPLC analysis. In kind it is ADME, organism-based. Particulars: in vivo.
Series [14] can be described thus: Cmax in Sprague-Dawley rat at 30 mg/kg, po administered for 24 hrs by HPLC analysis. The series is classed as ADME, organism-based. More on the design: time 24 hrs, dose 30 mg/kg, route po. Particulars: in vivo.

Calls of active or inactive are those of the source.

The results in this text go back to ChEMBL document CHEMBL5338739, “Discovery of Dual Lysine Methyltransferase G9a and EZH2 Inhibitors with In Vivo Efficacy against Malignant Rhabdoid Tumor” (J Med Chem, 2023).

Chain of Histone-lysine N-methyltransferase EZH2 (Q15910 whole entry, looked up): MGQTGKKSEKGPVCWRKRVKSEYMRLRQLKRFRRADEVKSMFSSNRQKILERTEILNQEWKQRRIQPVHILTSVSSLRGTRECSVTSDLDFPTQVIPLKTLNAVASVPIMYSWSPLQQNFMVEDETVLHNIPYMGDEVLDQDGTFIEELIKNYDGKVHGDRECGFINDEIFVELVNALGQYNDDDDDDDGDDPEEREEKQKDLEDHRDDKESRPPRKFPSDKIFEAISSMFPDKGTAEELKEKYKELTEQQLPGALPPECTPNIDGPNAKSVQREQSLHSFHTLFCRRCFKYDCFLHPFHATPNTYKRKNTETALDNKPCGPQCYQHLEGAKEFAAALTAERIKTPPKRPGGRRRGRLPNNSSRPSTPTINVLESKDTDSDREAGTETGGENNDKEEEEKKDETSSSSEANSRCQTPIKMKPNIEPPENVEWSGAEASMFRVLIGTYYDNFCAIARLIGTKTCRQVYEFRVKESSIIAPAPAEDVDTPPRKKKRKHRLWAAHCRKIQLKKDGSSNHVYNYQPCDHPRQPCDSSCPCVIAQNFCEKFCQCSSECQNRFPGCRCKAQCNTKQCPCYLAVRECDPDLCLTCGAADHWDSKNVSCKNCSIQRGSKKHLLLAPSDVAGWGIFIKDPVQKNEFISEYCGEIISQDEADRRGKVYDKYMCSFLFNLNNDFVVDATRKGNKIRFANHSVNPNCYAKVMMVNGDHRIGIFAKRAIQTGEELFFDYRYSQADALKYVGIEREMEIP

Regarding `COc1cc2c(NCc3c(C)cc(C)[nH]c3=O)nc(N3CCC(F)(F)CC3)nc2cc1OCCCN1CCCC1`, the Activity entry in series [1] was “Dose-Dependent Effect”. Besides, the inhibition in vivo at 20 mg/kg with RD [2] amounted to 55.4%. The outcome with RD [3] and in the series on RD [4] was inactive. For the same molecule, the inhibition (commonly the share of the control response that was lost under treatment) in [5] was determined as 99.1%. Besides, the fraction unbound in series [6] is 0.186. The result in series [7] was Active. The half-life – broadly, the time needed for the level to fall by half in the phase considered – in series [8] is 4.02 h; in series [13], 3.47 h. In addition, the CC50 (in general, the concentration giving 50% cytotoxicity) at 72 h in series [9] is > 100000 nM. Also, the IC50 (as a rule, the concentration needed to halve the response being measured) in series [10] worked out at 2.9 nM. For the same molecule, in series [11], the AUC(0-t) (as a rule, exposure summed from dosing to a finite time, without extrapolation to infinity) at 24 h is 5350 ng·h/mL. The bioavailability (as a rule, the share of a dose that reaches the circulation, judged against a reference dose that is usually intravenous) in series [12] stood at 92%. In series [14], the Cmax (in general, the maximum level reached in the sampled fluid or tissue) worked out at 3180 ng/mL.
